# Results reported in patent US10385070B2, “Chroman-spirocyclic piperidine amides as modulators of ion channels” (VERTEX PHARMACEUTICALS INCORPORATED, priority 2011, dated 2019).
# pIC50: −log10 of the molar value.
# Target: human NaV subtype, like NaV 1.7 (Homo sapiens, UniProt Q15858)
# Assay: E-VIPR optical membrane potential assay with electrical stimulation
# Assay type: cell-based
# Details: active against one or more sodium channels; assay and NaV subtype not specified for Table 3; read-out: IC50 Binned Activity Data
# Excerpt: Assays for Detecting and Measuring NaV Inhibition Properties of Compound E-VIPR Optical Membrane Potential Assay Method with Electrical Stimulation
# Sodium channels are voltage-dependent proteins that can be activated by inducing membrane voltage changes by applying electric fields. The electrical stimulation instrument and methods of use are described in Ion Channel Assay Methods PCT/US01/21652, herein incorporated by reference and are referred to as E-VIPR. The instrument comprises a microtiter plate handler, an optical system for exciting the coumarin dye while simultaneously recording the coumarin and oxonol emissions, a waveform generator, a current- or voltage-controlled amplifier, and a device for inserting electrodes in well. Under integrated computer control, this instrument passes user-programmed electrical stimulus protocols to cells within the wells of the microtiter plate.
# 24 hours before the assay on E-VIPR, HEK cells expressing human NaV subtype, like NaV 1.7, are seeded in 384-well poly-lysine coated plates at 15,000-20,000 cells per well. Other subtypes are performed in an analogous mode in a cell line expressing the NaV of interest. HEK cells are grown in media (exact composition is specific to each cell type and NaV subtype) supplemented with 10% FBS (Fetal Bovine Serum, qualified; GibcoBRL #16140-071) and 1% Pen-Strep (Penicillin-Streptomycin; GibcoBRL #15140-122). Cells are grown in vented cap flasks, in 90% humidity and 10% CO2, to 100% confluence. They are usually split by trypsinization 1:10 or 1:20, depending on scheduling needs, and grown for 2-3 days before the next split.
# 100 mg/mL Pluronic F-127 (Sigma #P2443), in dry DMSO
# Compound Plates: 384-well round bottom plate, e.g. Corning 384-well Polypropylene Round Bottom #3656
# Cell Plates: 384-well tissue culture treated plate, e.g. Greiner #781091-1B
# Bath1 buffer. Glucose 10 mM (1.8 g/L), Magnesium Chloride (Anhydrous), 1 mM (0.095 g/L), Calcium Chloride, 2 mM (0.222 g/L), HEPES 10 mM (2.38 g/L), Potassium Chloride, 4.5 mM (0.335 g/L), Sodium Chloride 160 mM (9.35 g/L).
# Hexyl Dye Solution: Bath1 Buffer+0.5% β-cyclodextrin (make this prior to use, Sigma #C4767), 8 μM CC2-DMPE+2.5 μM DiSBAC6(3). To make the solution Add volume of 10% Pluronic F127 stock equal to volumes of CC2-DMPE+DiSBAC6(3). The order of preparation is first mix Pluronic and CC2-DMPE, then add DiSBAC6(3) while vortexing, then add Bath1+β-Cyclodextrin.
# 1) Pre-spot compounds (in neat DMSO) into compound plates. Vehicle control (neat DMSO), the positive control (20 mM DMSO stock tetracaine, 125 μM final in assay) and test compounds are added to each well at 160× desired final concentration in neat DMSO. Final compound plate volume will be 80 μL (80-fold intermediate dilution from 1 μL DMSO spot; 160-fold final dilution after transfer to cell plate). Final DMSO concentration for all wells in assay is 0.625%.
# 2) Prepare Hexyl Dye Solution.
# 3) Prepare cell plates. On the day of the assay, medium is aspirated and cells are washed three times with 100 μL of Bath1 Solution, maintaining 25 μL residual volume in each well.
# 4) Dispense 25 μL per well of Hexyl Dye Solution into cell plates. Incubate for 20-35 minutes at room temp or ambient conditions.
# 5) Dispense 80 μL per well of Bath1 into compound plates. Acid Yellow-17 (1 mM) is added and Potassium Chloride can be altered from 4.5 to 20 mM depending on the NaV subtype and assay sensitivity.
# 6) Wash cell plates three times with 100 μL per well of Bath1, leaving 25 μL of residual volume. Then transfer 25 uL per well from Compound Plates to Cell Plates. Incubate for 20-35 minutes at room temp/ambient condition
# 7) Read Plate on E-VIPR. Use the current-controlled amplifier to deliver stimulation wave pulses for typically 9 seconds and a scan rate of 400 Hz. A pre-stimulus recording is performed for 0.5 seconds to obtain the un-stimulated intensities baseline. […]
# human NaV subtype, like NaV 1.7, sequence (Q15858 whole entry): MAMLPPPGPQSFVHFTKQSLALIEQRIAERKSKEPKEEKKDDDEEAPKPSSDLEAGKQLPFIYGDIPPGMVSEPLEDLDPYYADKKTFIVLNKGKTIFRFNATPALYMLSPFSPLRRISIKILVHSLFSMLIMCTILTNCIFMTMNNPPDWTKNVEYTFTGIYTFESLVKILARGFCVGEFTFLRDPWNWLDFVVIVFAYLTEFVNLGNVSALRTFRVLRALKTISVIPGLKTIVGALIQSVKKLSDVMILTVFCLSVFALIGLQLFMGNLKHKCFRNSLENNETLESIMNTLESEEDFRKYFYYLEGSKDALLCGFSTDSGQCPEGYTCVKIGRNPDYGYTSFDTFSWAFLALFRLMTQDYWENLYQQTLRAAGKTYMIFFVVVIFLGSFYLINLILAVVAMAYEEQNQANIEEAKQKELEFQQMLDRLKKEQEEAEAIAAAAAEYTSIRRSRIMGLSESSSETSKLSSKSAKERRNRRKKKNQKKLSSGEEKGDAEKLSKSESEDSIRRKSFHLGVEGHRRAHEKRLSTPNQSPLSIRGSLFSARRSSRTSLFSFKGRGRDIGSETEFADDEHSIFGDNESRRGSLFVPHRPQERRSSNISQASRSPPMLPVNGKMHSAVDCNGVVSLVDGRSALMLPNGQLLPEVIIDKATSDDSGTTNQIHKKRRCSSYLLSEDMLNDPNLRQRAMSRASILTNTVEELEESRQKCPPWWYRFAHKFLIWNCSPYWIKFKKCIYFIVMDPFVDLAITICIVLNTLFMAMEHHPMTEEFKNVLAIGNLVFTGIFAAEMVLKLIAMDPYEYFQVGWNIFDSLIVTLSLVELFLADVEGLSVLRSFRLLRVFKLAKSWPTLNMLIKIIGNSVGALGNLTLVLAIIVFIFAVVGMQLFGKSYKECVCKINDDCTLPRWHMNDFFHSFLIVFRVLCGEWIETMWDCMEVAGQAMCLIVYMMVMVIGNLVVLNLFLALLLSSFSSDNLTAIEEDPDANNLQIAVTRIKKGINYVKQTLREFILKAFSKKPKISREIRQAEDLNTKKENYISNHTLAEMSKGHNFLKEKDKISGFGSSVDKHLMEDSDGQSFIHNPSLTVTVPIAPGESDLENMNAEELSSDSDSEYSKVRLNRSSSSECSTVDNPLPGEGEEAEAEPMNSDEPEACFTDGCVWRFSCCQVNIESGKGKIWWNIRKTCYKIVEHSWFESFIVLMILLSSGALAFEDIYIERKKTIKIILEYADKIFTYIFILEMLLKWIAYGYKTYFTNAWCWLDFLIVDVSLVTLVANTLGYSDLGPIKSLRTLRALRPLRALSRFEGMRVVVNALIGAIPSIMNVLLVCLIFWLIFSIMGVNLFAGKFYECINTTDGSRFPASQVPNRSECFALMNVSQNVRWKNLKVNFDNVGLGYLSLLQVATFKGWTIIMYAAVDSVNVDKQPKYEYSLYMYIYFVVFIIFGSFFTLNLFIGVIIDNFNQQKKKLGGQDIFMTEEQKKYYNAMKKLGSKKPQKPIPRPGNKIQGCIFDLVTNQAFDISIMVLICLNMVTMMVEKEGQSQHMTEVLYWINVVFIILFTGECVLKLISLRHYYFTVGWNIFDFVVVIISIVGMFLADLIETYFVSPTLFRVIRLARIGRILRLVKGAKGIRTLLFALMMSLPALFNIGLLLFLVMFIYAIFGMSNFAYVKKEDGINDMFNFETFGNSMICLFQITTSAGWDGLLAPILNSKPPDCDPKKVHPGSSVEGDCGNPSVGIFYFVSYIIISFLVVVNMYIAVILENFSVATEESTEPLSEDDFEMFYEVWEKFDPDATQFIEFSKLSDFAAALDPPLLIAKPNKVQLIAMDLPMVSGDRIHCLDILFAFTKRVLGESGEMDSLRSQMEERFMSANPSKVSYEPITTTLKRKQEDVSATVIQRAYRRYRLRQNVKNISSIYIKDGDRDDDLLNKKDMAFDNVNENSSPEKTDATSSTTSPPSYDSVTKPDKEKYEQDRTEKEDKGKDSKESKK
row,SMILES,pIC50
1,COc1ccc(C(=O)N2CCC3(CC2)C[C@H](OC(C)C)c2ccccc2O3)cc1C [Compound 133],≥ 5.70
2,CC(C)O[C@@H]1CC2(CCN(C(=O)c3ccc(S(=O)(=O)C(C)C)c(C#N)c3)CC2)Oc2ccc(F)cc21 [Compound 22],≥ 5.70
3,CC(C)Oc1ccc(C(=O)N2CCC3(CC2)C[C@@H](OC(C)C)c2cc(F)ccc2O3)cc1CN [Compound 8],< 5.30
4,COc1cc(C(=O)N2CCC3(CC2)C[C@@H](OC(C)C)c2ccccc2O3)ccc1OC(C)C [Compound 114],≥ 5.70
5,COc1cc(C(=O)N2CCC3(CC2)C[C@@H](OC(C)C)c2cc(F)ccc2O3)ccc1OC(C)C [Compound 146],≥ 5.70
6,CCc1ccc(C(=O)N2CCC3(CC2)C[C@@H](OC(C)C)c2ccccc2O3)cc1OC [Compound 50],≥ 5.70
7,CC(C)O[C@@H]1CC2(CCN(C(=O)c3ccc(N(C)C(C)C)cn3)CC2)Oc2ccc(F)cc21 [Compound 16],≥ 5.70
8,CC(C)Oc1ccc(C(=O)N2CCC3(CC2)C[C@@H](OC(C)C)c2cc(F)ccc2O3)nc1 [Compound 139],≥ 5.70
9,Cc1nc(C(=O)N2CCC3(CC2)C[C@@H](OC(C)C)c2ccccc2O3)ccc1OC(C)C [Compound 80],≥ 5.70
10,CC(C)S(=O)(=O)c1ccc(C(=O)N2CCC3(CCc4ccccc4O3)CC2)cc1 [Compound 39],< 5.30
11,COC1CCN(c2ccc(C(=O)N3CCC4(CC3)C[C@@H](OC(C)C)c3cc(F)ccc3O4)nc2)CC1 [Compound 41],≥ 5.70
12,COCOC1Cc2ccccc2OC12CCN(C(=O)c1ccc(OC(C)C)c(OC)c1)CC2 (centres unmarked) [Compound 135],≥ 5.70
13,Cc1cc(C(=O)N2CCC3(CC2)C[C@@H](O)c2cc(F)ccc2O3)ccc1OC(C)C [Compound 122],≥ 5.70
14,CC(C)O[C@@H]1CC2(CCN(C(=O)c3ccc(NS(=O)(=O)C(C)C)cc3)CC2)Oc2ccc(F)cc21 [Compound 19],≥ 5.70
15,CCOCC1CC2(CCN(C(=O)c3ccc(OC(C)C)c(OC)c3)CC2)Oc2ccccc21 (centres unmarked) [Compound 56],≥ 5.70
16,CCOC1Cc2ccccc2OC12CCN(C(=O)c1ccc(OC(C)C)c(OC)c1)CC2 (centres unmarked) [Compound 100],≥ 5.70
17,Cc1cc(C(=O)N2CCC3(CC2)CC(OC(C)C)c2ccccc2O3)ccc1OC(C)C (centres unmarked) [Compound 141],≥ 5.70
18,CC(C)O[C@@H]1CC2(CCN(C(=O)c3ccc(N4CCOCC4)cn3)CC2)Oc2ccc(F)cc21 [Compound 52],≥ 5.70
19,CC(C)O[C@@H]1CC2(CCN(C(=O)c3ccc(N4CC(S(C)(=O)=O)C4)cn3)CC2)Oc2ccc(F)cc21 [Compound 103],< 5.30
20,COc1cc(C(=O)N2CCC3(CC2)CC(OC(C)C)c2nn(C(C)(C)C)cc2O3)ccc1OC(C)C (centres unmarked) [Compound 34],≥ 5.70
21,CC(C)Oc1ccc(C(=O)N2CCC3(CC2)CC(OC(C)C)c2ccccc2O3)cc1C#N (centres unmarked) [Compound 76],≥ 5.70
22,COc1cc(C(=O)N2CCC3(CC2)CC(OC(C)C)c2ccc(F)cc2O3)ccc1OC(C)C (centres unmarked) [Compound 25],≥ 5.70
23,CC(C)O[C@@H]1CC2(CCN(C(=O)c3ccc4c(cnn4C)c3)CC2)Oc2ccccc21 [Compound 137],≥ 5.70
24,Cc1cc(C(=O)N2CCC3(CCc4ccccc4O3)CC2)ccc1OC(C)C [Compound 96],≥ 5.70
25,Cc1nc(C(=O)N2CCC3(CC2)C[C@H](OC(C)C)c2ccccc2O3)ccc1OC(C)C [Compound 107],≥ 5.70
26,CC(C)OC1CC2(CCN(C(=O)c3ccc(S(=O)(=O)C(C)C)cc3)CC2)Oc2ccccc21 (centres unmarked) [Compound 119],≥ 5.70
27,CC1CCCN(c2ccc(C(=O)N3CCC4(CC3)C[C@@H](OC(C)C)c3cc(F)ccc3O4)nc2)C1 (some centres unmarked) [Compound 132],≥ 5.70

row,SMILES,pIC50
1,CC(C)O[C@@H]1CC2(CCN(C(=O)c3ccc(N4CCCC4)cn3)CC2)Oc2ccccc21 [Compound 102],< 5.30
2,CC(C)O[C@H]1CC2(CCN(C(=O)c3ccc(C(C)(C)O)cc3)CC2)Oc2ccccc21 [Compound 115],5.30 to 5.70
3,Cc1cc(C(=O)N2CCC3(CC2)C[C@@H](OC(C)C)c2cc(F)cc(F)c2O3)ccc1S(=O)(=O)C(C)C [Compound 27],≥ 5.70
4,CCO[C@@H]1CC2(CCN(C(=O)c3ccc(S(=O)(=O)C(C)C)cc3)CC2)Oc2ccc(F)cc21 [Compound 32],5.30 to 5.70
5,CC(C)Oc1ccc(C(=O)N2CCC3(CC2)C[C@@H](OC(C)C)c2cc(F)ccc2O3)cc1C#N [Compound 164],≥ 5.70
6,CC(C)O[C@@H]1CC2(CCN(C(=O)c3ccc(S(=O)(=O)C4CC4)cc3)CC2)Oc2ccc(F)cc21 [Compound 82],≥ 5.70
7,CCc1ccc(C(=O)N2CCC3(CC2)C[C@@H](OC(C)C)c2cc(F)ccc2O3)cc1OC [Compound 126],≥ 5.70
8,Cc1cc(C(=O)N2CCC3(CC2)C[C@H](OC(C)C)c2ccccc2O3)ccc1O [Compound 149],≥ 5.70
9,COc1cc(C(=O)N2CCC3(CC2)CC(OC(C)C)c2cccc(F)c2O3)ccc1OC(C)C (centres unmarked) [Compound 177],≥ 5.70
10,Cc1cc(C(=O)N2CCC3(CC2)C[C@@H](OC(C)C)c2cc(F)ccc2O3)ccc1S(=O)(=O)C(C)C [Compound 13],≥ 5.70
11,CC(C)OC1CC2(CCN(C(=O)c3ccc(C(C)(C)O)c(F)c3)CC2)Oc2cc(F)ccc21 (centres unmarked) [Compound 118],≥ 5.70
12,CC(C)O[C@@H]1CC2(CCN(C(=O)c3ccc(C4(O)CCCC4)cc3)CC2)Oc2ccc(F)cc21 [Compound 49],≥ 5.70
13,COc1cc(C(=O)N2CCC3(CC2)C[C@@H](OC(C)C)c2cc(F)ccc2O3)ccc1C(C)(C)CO [Compound 120],≥ 5.70
14,CC(C)O[C@@H]1CC2(CCN(C(=O)c3ccc(S(=O)(=O)C(C)(C)C)cc3)CC2)Oc2ccc(F)cc21 [Compound 59],≥ 5.70
15,CC(C)Oc1ccc(C(=O)N2CCC3(CC2)C[C@H](OC(C)C)c2ccccc2O3)cc1CO [Compound 42],≥ 5.70
16,CC(C)O[C@@H]1CC2(CCN(C(=O)c3ccc(S(=O)(=O)CC4CCC4)cn3)CC2)Oc2ccc(F)cc21 [Compound 58],≥ 5.70
17,CC(C)O[C@@H]1CC2(CCN(C(=O)c3ccc(N4CCCCC4C)cn3)CC2)Oc2ccc(F)cc21 (some centres unmarked) [Compound 54],≥ 5.70
18,COc1cc(C(=O)N2CCC3(CC2)Oc2ccccc2C(OC(C)C)C3(C)C)ccc1OC(C)C (centres unmarked) [Compound 151],≥ 5.70
19,CCN(CC)CCOC1CC2(CCN(C(=O)c3ccc(OC(C)C)c(OC)c3)CC2)Oc2ccccc21 (centres unmarked) [Compound 38],< 5.30
20,CC(C)O[C@@H]1CC2(CCN(C(=O)c3ccc(NC4(C)COC4)cn3)CC2)Oc2ccc(F)cc21 [Compound 1],≥ 5.70
21,CC(C)Oc1ccc(C(=O)N2CCC3(CC2)C[C@@H](OC(C)C)c2cc(F)ccc2O3)cc1F [Compound 112],≥ 5.70
22,COc1cc(O)ccc1C(=O)N1CCC2(CC1)C[C@@H](OC(C)C)c1ccccc1O2 [Compound 170],≥ 5.70
23,CCS(=O)(=O)c1ccc(C(=O)N2CCC3(CC2)C[C@@H](OC(C)C)c2cc(F)ccc2O3)cc1C [Compound 9],≥ 5.70
24,COc1cc(C(=O)N2CCC3(CC2)CC(OCc2cccnc2)c2ccccc2O3)ccc1OC(C)C (centres unmarked) [Compound 105],≥ 5.70
25,CC(C)OC1CC2(CCN(C(=O)c3ccccc3OC(F)F)CC2)Oc2ccccc21 (centres unmarked) [Compound 88],≥ 5.70
26,CC(C)Oc1ccc(C(=O)N2CCC3(CC2)C[C@@H](OC(C)C)c2ccccc2O3)c(F)c1 [Compound 74],≥ 5.70
